Laboratory results reported in US20180214400A1, “THE USE OF KAURANES COMPOUNDS IN THE MANUFACTURE OF MEDICAMENT FOR TREATMENT OF CADIAC HYPERTROPY AND PULMONARY HYPERTENSION” (KEY-PHARMA BIOMEDICAL INC., priority 2015, published 2018).

How the values were obtained:
[1] = test system: Diabetic cardiomyopathy (DCM) rats; experiment: Streptozotocin-induced diabetic cardiomyopathy; format: in vivo, Wistar rats; settings: STZ diabetes, 12-16 weeks
Experimental: Diabetic cardiomyopathy (DCM) Diabetic induced injury to the myocardium. DCM, induced by streptozotocin (STZ), along with the associated changes occurring in inflammation, oxidative stress and fibrosis markers. Wistar rats were randomly divided into four groups: group A (Normal control), group B (Diabetes), group […] group D (DM/TMZ, trimetazidine treatment). After 12-16 weeks, left ventricular function was measured by the pressure-volume system. Cardiac tissues were prepared for histological study by hematoxlyin and eosin, Sirius red staining as well as for assays of oxidative stress. Oxidative stress, inflammation, and fibrosis markers were evaluated by molecular biological techniques. All data were measured morphometrically and statistically analyzed.

TAC rats = experiment: Left ventricular pressure-volume relationship in TAC rats; format: in vivo; settings: 3 or 9 weeks
Experimental: The left ventricular pressure and volume were measured simultaneously. Tow parameters can be derived by studying of the relationship of pressure-volume during changes of either preload or afterload. ESPVR, the slope of end-systolic pressure-volume relationships which represent end-systolic elastics; EDPVR, the slope of end-diastolic pressure-volume relationship which, represents cardiac stiffness. In hypertrophy hearts after 3 or 9 weeks TAC, the cardiac pump dysfunction was manifested by a significant decreased ESPVR and increased in EDPVR. […] Therefore, compound A are useful to preserve a normal elasticity during contraction and reduce diastolic stiffness of hearts with high pressure load as in TAC rats.
Heart hemodynamic Analysis was conducted by pressure-volume (PV) catheter. Rats were anesthetized and placed on a warming pad (37° C.). Underwent tracheostomy, rats were then ventilated by using a positive pressure with a tidal volume of 4-6 ml/200 g at 70 breaths/min using room air. […] After stabilization of the signal for 10-15 min, baseline PV loops were recorded at a steady state. […] After data were recorded under steady-state conditions and during preload reduction, parallel conductance values were obtained by the injection of 40 μl hypertonic saline (30%) into the right jugular vein. […] Data were recorded on separate channels of the PowerLab system. […]

microRNA21 = microRNA21 and fibrosis at penumbra region of ischemic heart; format: in vivo
Source text: This effect of compound A has never been reported in prior art.

male rats = experiment: Penile erection in male rats; format: in vivo; settings: relative higher dose
dogs = experiment: Penile erection in male dogs; format: in vivo; settings: relative higher dose
[2] = test system: mitochondrial KATP channel; experiment: Mitochondrial KATP channel effect
Source text: This invention disclosed exclusively that compound A per se had no effect on either sarcolemma or mitochondrial KATP channel. Instead, compound A is acting only as a sensitizer which render the KATP channel response greater to known KATP channel openers, such as pinacidil and to change of ATP.

[3] = test system: hypertrophy cardiomyocytes; experiment: Cytosol Ca++ in hypertrophy cardiomyocytes; format: cell-based
Source text: This invention disclosed a novel use of inotropic medicine selectively that is compound A can be used to improve the cardiac function in a deteriorative hypertrophy heart without increase cytosol Ca++ or oxygen consumption. In addition it was not worsening the ECG instead it improve the ECG in hypertrophy heart. This is due to that compound A can reduce cardiomyocytes cytosol Ca++ level but enhance only the peak of Ca++ transient during each contraction in hypertrophy cardiomyocytes. This novel finding makes compound A different from other known traditional inotropic medicine such digitalis and beta agonists such as epinephrine.

[4] = test system: cerebral I/R injured rats; experiment: Late phase cerebral I/R injury (7 days) in rats; format: in vivo; settings: 7 days after I/R
Experimental: Reactive astrogliosis is a common pathological process in late phase of cerebral I/R injury, which contributes to further neuronal damages. It is also seen in neuronal degenerative disease such as Alzheimer's disease in the present invention, compound A given consecutively for 7 days in cerebral I/R injured rats. […] The therapeutic effects of either single or consecutive 7 treatments with compound A were Analyzed and compared at 7 days after I/R injury.

[5] = test system: acute ischemia-reperfusion heart injuries; settings: cited from earlier work
cGMP = cGMP ELISA in neonatal rat fibroblasts; format: cell-based; settings: 100 um, 3 h
Experimental: Neonatal rat cardiac fibroblasts were isolated from 1-2-day-old Sprague-Dawley rats as described previously. Briefly, hearts from newborn 1-2-day-old Sprague-Dawley rats were minced on ice, and cells were isolated by trypsin incubation at 37° C. Non-cardiomyocytes were separated from the cardiomyocytes by differential pre-plating, and then cardiomyocytes were removed with fibroblasts seeded in culture dishes. The cells were passaged after 3 days, using a 0.05% trypsin solution. Cells were cultured in DEME/F12 medium with 5% fetal calf serum, and maintained at 37° C., 5% CO2 condition. cGMP levels in the neonatal rat fibroblasts after treated with vehicle or compound A or sildenafil were measured with an ELISA kit following the manufacture's instruction. Quiescent cells were cultured with different doses of compound A ([…]) or sildenafil ([…]) for 3 h. After treatment, the cells were lysed with 0.1N HCl, and performed cGMP ELISA assay.

| SMILES | cardiac hypertrophy [1] | deteriorations in ESPVR and EDPVR (TAC rats) | fibrosis at the same region (microRNA21) | microRNA21 (microRNA21; penumbra region of the ischemic heart) | penile erection (male rats) | penile erection (dogs) | effect on mitochondrial KATP channel per se [2] | cardiomyocytes cytosol Ca++ level [3] | peak of Ca++ transient during each contraction [3] | I/R injury, consecutive 7 treatments comparing to single treatment [4] | accumulation of activated astrocytes ([4]; consecutive treatments) | infarct volume ([4]; given consecutively for 7 days) | neurological behavior and cellular morphology ([4]; given consecutively for 7 days) | neuronal survival ([4]; given consecutively for 7 days) | cardioprotective effect and arrhythmia [5] | Stimulated production of cGMP (cGMP) |
| --- | --- | --- | --- | --- | --- | --- | --- | --- | --- | --- | --- | --- | --- | --- | --- | --- |
| C[C@@]12CC[C@@H]3[C@@](CC[C@H]4[C@@]3(C)CCC[C@@]4(C)C(=O)O)(CC1=O)C2 [Compound A, (4α,8β,13β)-13-methyl-16-oxo-17-norkauran-18-oic acid] | significant inhibited | prevented the deteriorations | significant amelioration | significant reduced | long lasting penile erection | long lasting penile erection | had no effect | reduce | enhance | significantly improved | significantly inhibited | reduction | improvement | enhancement | cardioprotective effect | – |
| CCCc1nn(C)c2c(=O)[nH]c(-c3cc(S(=O)(=O)N4CCN(C)CC4)ccc3OCC)nc12 [sildenafil, reference compound] | – | – | – | – | – | – | – | – | – | – | – | – | – | – | – | 141 ± 27% |
